Measurements reported in PMC9887005, “Regioselective protein oxidative cleavage enabled by enzyme-like recognition of an inorganic metal oxo cluster ligand” (Nature Communications, 2023).

Biological target: T1, hen egg white lysozyme (HEWL) (Gallus gallus, UniProt P00698)
T1 construct: gene LYZ
Experiment: tryptophan fluorescence quenching
Assay type: binding
Details: 10 mM tris-HCl pH 7.5, room temperature; 10 µM HEWL, excitation 295 nm; double-log; fitted together with number of bound quencher molecules n
Source text: tryptophan fluorescence quenching on hen egg white lysozyme (HEWL)

T1 sequence (P00698 19-147): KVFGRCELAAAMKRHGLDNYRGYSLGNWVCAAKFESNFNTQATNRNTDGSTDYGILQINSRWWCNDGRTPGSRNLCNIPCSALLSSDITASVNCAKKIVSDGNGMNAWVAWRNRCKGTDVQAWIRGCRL

Substance | Ka [M⁻¹]
Cu^IIWD | 6.76e+08
α2WD | 6.91e+08
